Reference: patent US20250197359A1, “CANNABINOID RECEPTOR MODULATING COMPOUNDS” (The U.S.A., as Represented by the Secretary, Department of …, priority 2022, published 2025)
pIC50, pKi: −log10 of the molar value. Read-outs that look alike come from different tables or passages of the source.

What was measured:
[1] = target: T1, Cannabinoid receptor 1 (Homo sapiens, UniProt P21554); experiment: cAMP signaling, red cAMPNomad biosensor, MPXNomad-CB1 HEK293 cell line, antagonism of CP55940; assay type: cell-based; conditions: for reduction in the fluorescence intensity, cAMP assay: CP55940 3 μM
T1 construct: expressed in transfected cells; host or cells: MPXNomad-CB1 HEK293 cell line
T1 sequence (P21554 whole entry): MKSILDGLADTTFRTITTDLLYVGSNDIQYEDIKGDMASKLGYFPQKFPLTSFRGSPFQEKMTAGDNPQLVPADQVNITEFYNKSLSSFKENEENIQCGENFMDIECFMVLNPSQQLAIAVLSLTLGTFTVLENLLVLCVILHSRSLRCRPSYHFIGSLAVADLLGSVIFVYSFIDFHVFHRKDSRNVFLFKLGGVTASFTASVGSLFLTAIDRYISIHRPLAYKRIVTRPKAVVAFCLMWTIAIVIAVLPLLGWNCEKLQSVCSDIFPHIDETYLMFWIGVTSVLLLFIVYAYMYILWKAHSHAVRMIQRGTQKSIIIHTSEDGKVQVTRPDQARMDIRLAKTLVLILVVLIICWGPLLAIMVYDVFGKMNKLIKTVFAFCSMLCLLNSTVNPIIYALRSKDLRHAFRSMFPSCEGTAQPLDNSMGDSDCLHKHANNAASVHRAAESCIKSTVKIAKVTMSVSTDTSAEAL
Procedure: (§1) A number of these amino carboxamido adducts with a variety of side chains have been synthesized. This led to interesting CB1R binding affinities of the synthesized molecules. Several of these racemic (glycine, valine) or diastereomeric molecules have binding affinities in single digit nanomolar range (2 nM to 10 nM) obtained from radioligand binding assay. Furthermore, we investigated the antagonist effect of a few compounds to analyze their capability to modulate CBIR induced by CP55940 in the MPXNomad-CB1 HEK293 cell line. This cell line has been validated measuring cAMP signaling and ß-Arrestin mobilization analyzing the fluorescence intensity of the red cAMPNomad and the green ArresNomad biosensors.
(§2) The MPXNomad-CB1 cell line was used to test substances or examine their ability to interact with Cannabinoid receptor 1 where an agonist that binds to CB1 activates a G protein, which in turn causes CAMP to be released and a cellular response that is then internalized by ß-Arrestin. The assay determined the efficacy to block the activation of the CB1 receptor brought on by CP55940 in the MPXNomad-CB1 HEK293 cell line. AM251 1 μM and 3 µM was utilized as the positive control, CP55940 3 μM was used as the negative control, and vehicle (DMSO) served as the zero control. Treatment with CP55940 3 μM produced an increment in the fluorescence intensity of the red cAMPNomad and the green ArresNomad biosensors. […] Instead, the reduction was a 50%, 34% and 22% at 1 μM, 100 nM and 10 nM, respectively in the arrestin assay.

[2] = target: T1, Cannabinoid receptor 1; experiment: β-Arrestin mobilization, green ArresNomad biosensor, MPXNomad-CB1 HEK293 cell line, antagonism of CP55940; assay type: cell-based; conditions: for reduction in the fluorescence intensity, arrestin assay: CP55940 3 μM
Procedure: as §1, §2

[3] = Caco-2 permeability (A-B and B-A); assay type: in vitro ADME; conditions: human
[4] = target: iNOS (Mus musculus, UniProt P29477); experiment: Inducible NOS biochemical assay
Text: Biochemical assay results are presented as the percent inhibition of specific binding or activity (iNOS, CAMP, beta arrestin).

[5] = target: CB1 (UniProt P21554); experiment: CB1 radioligand binding assay; parameters: species or system human; conditions: read-out: Ki (CB1)
How it was run: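 Radioligand binding to human CB1 stably expressed in CHO cells and to mouse brain membrane CB1 gave binding constants. For selected compounds, antagonism of CP55940-induced CB1 activation was measured in MPXNomad-CB1 HEK293 cells via cAMPNomad (cAMP) and ArresNomad (β-arrestin) fluorescent biosensors.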

[6] = Metabolic stability in mouse liver microsomes; assay type: in vitro ADME; conditions: mouse, liver microsomes
[7] = target: T2, Brain/CB1 (Mus musculus, UniProt P47746); experiment: Functional GTPγS binding, Brain/CB1; assay type: biochemical
T2 construct: from tissue; host or cells: mouse brain membranes
T2 sequence (P47746 whole entry): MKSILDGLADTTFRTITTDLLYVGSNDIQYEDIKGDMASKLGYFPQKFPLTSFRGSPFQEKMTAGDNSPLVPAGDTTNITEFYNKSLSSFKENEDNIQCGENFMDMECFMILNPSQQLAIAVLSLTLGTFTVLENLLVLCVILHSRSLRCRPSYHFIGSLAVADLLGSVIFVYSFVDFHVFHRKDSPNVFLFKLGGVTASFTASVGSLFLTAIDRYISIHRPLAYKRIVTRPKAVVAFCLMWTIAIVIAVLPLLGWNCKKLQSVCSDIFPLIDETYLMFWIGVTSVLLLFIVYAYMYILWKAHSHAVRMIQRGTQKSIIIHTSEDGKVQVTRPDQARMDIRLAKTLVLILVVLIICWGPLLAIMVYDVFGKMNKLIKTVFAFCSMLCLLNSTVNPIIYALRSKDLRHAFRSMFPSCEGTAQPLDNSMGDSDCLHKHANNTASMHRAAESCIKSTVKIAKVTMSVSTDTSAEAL

[8] = Metabolic stability in human liver microsomes; assay type: in vitro ADME; conditions: human, liver microsomes
[9] = vs CP55940, MPXNomad-CB1 HEK293

Q: With CC(C)C(N/C(=N/S(=O)(=O)c1ccc(C(F)(F)F)cc1)N1CCC(c2ccccc2)C(c2ccc(Cl)cc2)=N1)C(N)=O (stereo not shown) [2-(3-(4-chlorophenyl)-4-phenyl-N′-((4-(trifluoromethyl)phenyl)sulfonyl)-1,4,5,6-tetrahydropyridazine-1-carboximidamido)-3-methylbutanamide] as the molecule, how does the pIC50 [1, 9] read?
A: 9.09

Q: And the pIC50 [2, 9]?
A: 9.64

Q: What does the source list for C/C(N)=N\C(=N\S(=O)(=O)c1ccc(C(F)(F)F)cc1)N1CCC(c2ccccc2)C(c2ccc(Cl)cc2)=N1 (stereo not shown) [Compound 10b, (Z)—N—((E)-1-aminoethylidene)-3-(4-chlorophenyl)-4-phenyl-N′-((4-(trifluoromethyl)phenyl)sulfonyl)-5,6-dihydropyridazine-1 (4H)-carboximidamide]?
A: Papp A→B ([3]; Caco-2, mean, read-out: Papp (AB), 10^−6 cm/s, Mean): 25 nm/s; Papp B→A ([3]; Caco-2, mean, read-out: Papp (BA), 10^−6 cm/s, Mean): 19 nm/s; Papp A→B ([3]; Caco-2, replicate 1, read-out: Papp (AB), 10^−6 cm/s, 1): 24 nm/s; Papp B→A ([3]; Caco-2, replicate 1, read-out: Papp (BA), 10^−6 cm/s, 1): 19 nm/s; Papp A→B ([3]; Caco-2, replicate 2, read-out: Papp (AB), 10^−6 cm/s, 2): 25 nm/s; Papp B→A ([3]; Caco-2, replicate 2, read-out: Papp (BA), 10^−6 cm/s, 2): 18 nm/s; efflux ratio ([3]; Caco-2, quotient of Papp(BA) to Papp(AB)): 0.8; iNOS inhibition % Response [4]: 64%; reduction in the fluorescence intensity, cAMP assay ([1]; 10 nM): ~19%; reduction in the fluorescence intensity, cAMP assay ([1]; 100 nM): ~29%; reduction in the fluorescence intensity, cAMP assay ([1]; 1 μM): ~47%; pKi [5]: 7.82; reduction in the fluorescence intensity, arrestin assay ([2]; 10 nM): 22%; reduction in the fluorescence intensity, arrestin assay ([2]; 100 nM): 34%; reduction in the fluorescence intensity, arrestin assay ([2]; 1 μM): 50%; microsomal CLint [6]: 34 µL/min/mg; half-life ([6]; read-out: t1/2, min): 0.813 h; pIC50 [7]: 7.03; microsomal CLint [8]: 2 µL/min/mg; half-life ([8]; read-out: t1/2, min): 12.7 h
